Drawing on US10976310B2, “Ligand identification by co-fractionation” (MAX-PLANCK-GESELLSCHAFT ZUR FÖRDERUNG DER WISSENSCHAFTEN …, priority 2016, dated 2021), this text covers ΔTm and Kd for one compound.

Broadly, the Kd is the equilibrium constant for the complex coming apart.

Where “and” joins values, the source holds several entries; their conditions need not be identical. Equal values may be shown once.

Assay [1] deals with T1, Rbp47b-TAP protein (Arabidopsis thaliana, UniProt Q0WW84).
T1 construct: expressed in transfected cells; host or cells: Arabidopsis cell suspension culture, Agrobacterium-transformed
T1 sequence (Q0WW84 1-435): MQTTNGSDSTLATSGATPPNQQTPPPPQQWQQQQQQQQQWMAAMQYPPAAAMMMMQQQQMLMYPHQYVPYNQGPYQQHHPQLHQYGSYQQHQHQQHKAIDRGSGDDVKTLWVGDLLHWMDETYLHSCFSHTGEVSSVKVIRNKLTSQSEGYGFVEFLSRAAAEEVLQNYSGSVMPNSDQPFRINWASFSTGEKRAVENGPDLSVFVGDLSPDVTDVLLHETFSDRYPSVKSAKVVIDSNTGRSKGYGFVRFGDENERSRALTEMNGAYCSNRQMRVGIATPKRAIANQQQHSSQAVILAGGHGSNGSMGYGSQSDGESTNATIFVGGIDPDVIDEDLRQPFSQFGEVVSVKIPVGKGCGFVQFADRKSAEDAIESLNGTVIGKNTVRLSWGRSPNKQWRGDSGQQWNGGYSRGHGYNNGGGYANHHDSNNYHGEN
As to the kind of experiment: Cellular thermal shift assay (CETSA) in native Arabidopsis lysate. Type of assay: binding. As to conditions: read-out: change of Rbp47b melting temperature (thermal destabilization). As for the experimental part: To this end we set out to identify the binding protein partners of 2′,3′-cAMP by applying affinity purification (AP) using agarose beads, with 2′,3′-cAMP linked via the NH2 group of the purine ring. After incubation of the beads with total soluble-protein extracts from A. thaliana cell suspension cultures (cf. Materials and Methods) sequential washings with ADP, GDP, 5′-AMP, and finally 2′,3′-cAMP were performed, and the proteins eluting in the different washings were analyzed by LC-MS/MS proteomics. Proteins eluting from the agarose beads exclusively with 2′,3′-cAMP but absent in any of the other eluents (ADP, GDP, or 5′-AMP; FIG. 10A) were defined as 2′,3′-cAMP-binding. Applying this stringent criterion only one protein remained: the polyadenylate-binding protein Rbp47b. We reasoned that the putative formation of Rbp47b-2′,3′-cAMP complexes in vivo should be reflected by largely overlapping elution profiles of the two components in a size-exclusion experiment (SEC), as was indeed the case (FIG. 10B). To obtain further and independent evidence for the formation of a complex between Rbp47b and 2′,3′-cAMP, we performed a cellular thermal shift assay (CETSA) (Franken et al. (2015) Thermal proteome profiling for unbiased identification of direct and indirect drug targets using multiplexed quantitative mass spectrometry. Nat Protoc 10: 1567-1593). CESTA is a method used in the drug research to verify ligand-receptor binding in the native cellular lysate, based on the observation that presence of the ligand changes thermal stability of the protein receptor. Herein, we adapted the protocol to be suitable for the plant material and an endogenous […] metabolite. We used Arabidopsis cells expressing a tagged version of the Rbp47b, so that Rbp47b level could be easily detected with the anti-tag antibody. […] Taken together, three independent experimental approaches (AP, SEC, and CETSA) provide evidence for the binding of 2′,3′-cAMP to Rbp47b in the native Arabidopsis lysate. […]

Assay [2] has as its target T2, Rbp47b self-assembly (Arabidopsis thaliana, UniProt Q0WW84).
T2 construct: GFP (C, cleaved yes); made in house; host or cells: E. coli Rosetta
T2 sequence (Q0WW84 1-435): T1 sequence (Q0WW84 1-435)
Description: MST measurement of Rbp47b self-assembly. Format: binding. As to conditions: 50 μM 2′,3′-cAMP; in its absence Kd=127.87 nM (128 nM); read-out: Kd of Rbp47b self-assembly in the presence of the ligand. The source says:
In plants 2′,3′-cAMP levels increase rapidly under wounding stress (Van Damme (2014) (loc. cit.)). To test whether 2′,3′-cAMP level changes in other stress conditions we queried metabolomics date from stress time-course of (Caldana et al. (2011) High-density kinetic analysis of the metabolomic and transcriptomic response of Arabidopsis to eight environmental conditions. Plant J 67: 869-884). Shortly, mature Col-0 rosettes (prior bolting) grown in the control environment, were transferred into combinations of light (low light, high light, darkness) and temperature stress conditions (heat and cold) and sampled in multiple time-points until 24 h following stress onset. […] If the interaction takes place in the cytosol, where both, Rbp47b and 2′,3′-cAMP are present, one would expect that 2′,3′-cAMP might influence stress granules formation, meaning oligomerization of Rbp47b. Due to the lack of commercially available membrane permeable derivative of 2′,3′-cAMP molecule, we were unable to follow stress granules formation in vivo. However we tested this hypothesis directly by determining the oligomerization of Rbp47b in the presence and absence of saturating amounts of 2′,3′-cAMP by MST. […] 2′,3′-cAMP, besides being the degradation product of mRNA, could play a regulatory role by influencing the oligomerization of the Rbp47b protein, in turn influencing the formation of SGs. […]

For the compound `Nc1ncnc2c1ncn2[C@@H]1O[C@H](CO)[C@H]2OP(=O)(O)O[C@H]21` [2′,3′-cAMP], in assay [1], the ΔTm at 10 µM was 2.4 °C and the ΔTm at 100 µM came to 5.1 °C. The Kd in assay [2] was 8.9 nM and 9 nM.
